According to ChEMBL document CHEMBL1201862, “PubChem BioAssay data set” (2004):
Calls of active or inactive are those of the source.

Key:
[1] = target: T1, Corticotropin-releasing factor receptor 2/Corticotropin-releasing factor-binding protein (Homo sapiens, UniProt P24387+Q13324); experiment: Dose Response confirmation of uHTS hits for small molecule antagonists of the CRF-binding protein and CRF-R2 receptor complex.; assay type: functional; settings: read-out: IC50_Mean
T1 sequence (Q13324 whole entry): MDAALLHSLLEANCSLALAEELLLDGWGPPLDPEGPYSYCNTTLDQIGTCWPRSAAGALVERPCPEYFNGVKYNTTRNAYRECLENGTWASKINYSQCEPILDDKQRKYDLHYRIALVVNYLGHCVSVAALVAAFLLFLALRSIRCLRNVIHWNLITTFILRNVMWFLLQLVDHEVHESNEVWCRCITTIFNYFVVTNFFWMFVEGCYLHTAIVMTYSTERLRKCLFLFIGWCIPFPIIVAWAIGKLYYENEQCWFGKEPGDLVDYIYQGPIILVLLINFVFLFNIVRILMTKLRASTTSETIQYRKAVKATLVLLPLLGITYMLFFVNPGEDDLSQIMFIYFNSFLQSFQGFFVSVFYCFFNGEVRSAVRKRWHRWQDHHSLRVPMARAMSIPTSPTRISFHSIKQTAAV
T1 sequence (P24387 whole entry): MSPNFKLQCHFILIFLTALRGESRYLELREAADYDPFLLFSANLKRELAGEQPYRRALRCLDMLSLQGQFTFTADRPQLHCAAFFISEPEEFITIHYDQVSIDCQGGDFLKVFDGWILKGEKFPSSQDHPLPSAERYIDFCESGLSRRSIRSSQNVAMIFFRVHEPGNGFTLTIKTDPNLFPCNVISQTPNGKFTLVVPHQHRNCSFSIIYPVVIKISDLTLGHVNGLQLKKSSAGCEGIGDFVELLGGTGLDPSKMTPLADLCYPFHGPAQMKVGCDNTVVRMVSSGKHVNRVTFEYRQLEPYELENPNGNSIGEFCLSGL

[2] = target: T1, Corticotropin-releasing factor receptor 2/Corticotropin-releasing factor-binding protein; experiment: activators of CRF receptor 2 with binding protein – uHTS hits, confirmation (AID 602473); assay type: functional; settings: read-out: EC50_Mean
[3] = blockers of CRF-binding protein–CRF-R2 complex – cell-based, uHTS hits, 384-well, dose response (AID 651639); assay type: functional, Homo sapiens; settings: read-out: IC50_Mean
[4] = target: Mitogen-activated protein kinase 10 (Homo sapiens, UniProt P53779); experiment: Dose response biochemical screening assay for inhibitors of c-Jun N-Terminal Kinase 3 (JNK3). [Related pubchem assays: 746 ]
Sequence of Mitogen-activated protein kinase 10 (P53779 whole entry): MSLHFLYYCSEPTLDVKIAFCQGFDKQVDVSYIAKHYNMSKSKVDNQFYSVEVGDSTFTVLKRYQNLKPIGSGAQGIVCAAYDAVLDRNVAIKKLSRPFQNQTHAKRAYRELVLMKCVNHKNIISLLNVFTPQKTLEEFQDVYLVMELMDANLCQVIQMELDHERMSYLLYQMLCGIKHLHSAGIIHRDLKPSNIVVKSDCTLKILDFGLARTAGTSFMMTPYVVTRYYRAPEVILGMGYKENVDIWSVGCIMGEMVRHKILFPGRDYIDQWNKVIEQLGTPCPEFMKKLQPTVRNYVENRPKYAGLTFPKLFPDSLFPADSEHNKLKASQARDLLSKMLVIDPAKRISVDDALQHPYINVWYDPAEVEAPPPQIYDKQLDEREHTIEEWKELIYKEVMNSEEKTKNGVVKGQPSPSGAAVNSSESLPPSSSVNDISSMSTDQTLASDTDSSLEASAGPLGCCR

[5] = target: Nuclear receptor subfamily 5 group A member 2 (Homo sapiens, UniProt O00482); assay type: functional, cell-based;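 also: HEK293T cells transfected with LRH-1 and a StAR promoter luciferase reporter; potency for inhibitors that lower LRH-1 driven reporter light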
Sequence of Nuclear receptor subfamily 5 group A member 2 (O00482 whole entry): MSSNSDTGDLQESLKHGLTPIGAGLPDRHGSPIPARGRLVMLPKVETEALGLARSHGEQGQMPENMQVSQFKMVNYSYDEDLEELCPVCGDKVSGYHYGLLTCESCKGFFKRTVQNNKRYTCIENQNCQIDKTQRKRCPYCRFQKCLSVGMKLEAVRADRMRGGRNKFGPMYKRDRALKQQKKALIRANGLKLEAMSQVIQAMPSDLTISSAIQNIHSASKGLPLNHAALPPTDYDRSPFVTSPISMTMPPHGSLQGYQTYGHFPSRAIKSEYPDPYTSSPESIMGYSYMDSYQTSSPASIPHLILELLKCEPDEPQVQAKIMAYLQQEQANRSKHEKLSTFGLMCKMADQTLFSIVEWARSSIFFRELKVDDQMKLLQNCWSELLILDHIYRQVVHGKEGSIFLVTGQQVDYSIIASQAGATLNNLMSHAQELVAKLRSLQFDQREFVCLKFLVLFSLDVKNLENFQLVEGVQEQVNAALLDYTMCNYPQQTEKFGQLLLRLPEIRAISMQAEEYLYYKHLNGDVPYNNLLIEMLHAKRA

Steroidogenic factor 1 = Steroidogenic factor 1 (Homo sapiens, UniProt Q13285); experiment: Counterscreen for inverse agonists of the liver receptor homolog-1 (LRH-1; NR5A2): Luminescence-based cell-based high throughput dose response assay to identify inverse agonists of the Steroidogenic Factor 1 Nuclear Receptor (SF1; NR5A1).; assay type: functional
Sequence of Steroidogenic factor 1 (Q13285 whole entry): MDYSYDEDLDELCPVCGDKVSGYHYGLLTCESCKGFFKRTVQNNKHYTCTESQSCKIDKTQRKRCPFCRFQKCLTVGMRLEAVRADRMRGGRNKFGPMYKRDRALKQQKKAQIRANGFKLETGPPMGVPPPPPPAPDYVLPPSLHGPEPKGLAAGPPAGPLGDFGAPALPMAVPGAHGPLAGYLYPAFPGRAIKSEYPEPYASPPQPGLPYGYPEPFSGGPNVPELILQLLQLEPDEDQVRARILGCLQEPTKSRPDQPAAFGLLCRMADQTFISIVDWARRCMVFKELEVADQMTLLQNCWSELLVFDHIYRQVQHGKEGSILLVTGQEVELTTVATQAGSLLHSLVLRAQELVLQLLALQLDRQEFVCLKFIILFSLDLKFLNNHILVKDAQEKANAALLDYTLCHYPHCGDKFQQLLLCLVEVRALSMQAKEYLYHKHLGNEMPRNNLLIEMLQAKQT

[6] = nonselective StAR promoter luciferase inhibitors – cell-based, luminescence, luciferase reporter, counter-screen for LRH-1 inverse agonist project, dose response (AID 651969); assay type: functional
[7] = target: ADP-ribosylation factor GTPase-activating protein 1 (Rattus norvegicus, UniProt Q62848); experiment: Fluorescence polarization-based biochemical high throughput dose response screening assay to identify inhibitors of ADP-ribosylation factor GTPase activating protein 1 (ARFGAP1).; assay type: functional
Sequence of ADP-ribosylation factor GTPase-activating protein 1 (Q62848 whole entry): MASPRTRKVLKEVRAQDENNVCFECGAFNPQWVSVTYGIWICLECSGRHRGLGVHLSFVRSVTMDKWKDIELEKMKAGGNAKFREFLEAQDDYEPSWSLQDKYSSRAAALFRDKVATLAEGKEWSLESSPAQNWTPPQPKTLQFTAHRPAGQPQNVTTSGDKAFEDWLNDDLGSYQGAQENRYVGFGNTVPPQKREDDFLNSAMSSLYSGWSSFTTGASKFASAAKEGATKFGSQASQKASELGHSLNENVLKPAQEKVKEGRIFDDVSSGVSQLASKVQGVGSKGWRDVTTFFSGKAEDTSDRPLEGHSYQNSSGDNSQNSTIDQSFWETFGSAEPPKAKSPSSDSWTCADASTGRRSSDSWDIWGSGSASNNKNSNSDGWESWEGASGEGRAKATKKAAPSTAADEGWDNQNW

[8] = target: Heat shock protein HSP 90-alpha (Homo sapiens, UniProt P07900); assay type: functional, organism-based
[9] = reduction of Shn3 3'UTR-driven luciferase in osteoblasts – cell-based, Clone20 osteoblasts, firefly luciferase, cherry-picked, dose response (AID 624132); assay type: functional;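 also: firefly luciferase luminescence from reporter carrying the Shn3 3'UTR in osteoblasts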
[10] = loss of viability in HepG2 cells – cell-based, CellTiter-Glo, cherry-picked, cytotoxicity control for Shn3 inhibitor project, dose response (AID 624134); assay type: functional
[11] = non-specific 3'UTR reporter inhibition in Clone20-Shn3RL – cell-based, Renilla luciferase, cherry-picked, counter-screen for Shn3 inhibitor project, dose response (AID 624133); assay type: functional
[12] = Fluorescence-based cell-based high throughput dose response assay for inhibitors of the interaction of nucleotide-binding oligomerization domain containing 2 (NOD2) and the receptor-interacting serine-threonine kinase 2 (RIPK2).; assay type: functional; settings: Homo sapiens
Beta Lactamase = Beta Lactamase (Pseudomonas aeruginosa, UniProt Q932Y6); experiment: BLA reporter interference, concentration series – BLA reporter cells, FRET fluorescence, artefact control for NOD2-RIPK2 interaction inhibitor project, dose response (AID 651552); assay type: functional, cell-based
Sequence of Beta Lactamase (Q932Y6 whole entry): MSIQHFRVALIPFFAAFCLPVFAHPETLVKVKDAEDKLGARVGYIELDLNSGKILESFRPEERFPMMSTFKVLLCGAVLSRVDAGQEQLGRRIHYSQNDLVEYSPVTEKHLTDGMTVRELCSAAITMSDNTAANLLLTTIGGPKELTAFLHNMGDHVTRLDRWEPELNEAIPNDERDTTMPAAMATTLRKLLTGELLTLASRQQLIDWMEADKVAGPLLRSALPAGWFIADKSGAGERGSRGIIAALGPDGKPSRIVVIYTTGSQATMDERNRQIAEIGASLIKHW

[13] = target: T2, ATP-dependent translocase ABCB1 (Homo sapiens, UniProt P08183); experiment: inhibition of BCRP-mediated JC-1 efflux – Ig-MXP3 cells, flow cytometry, set 2, dose response (AID 504566); assay type: functional; settings: read-out: EC50_MICROM_;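 also: flow cytometry median green fluorescence of retained JC-1 dye; potency of efflux pump inhibition measured as rising substrate retention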
T2 sequence (P08183 whole entry): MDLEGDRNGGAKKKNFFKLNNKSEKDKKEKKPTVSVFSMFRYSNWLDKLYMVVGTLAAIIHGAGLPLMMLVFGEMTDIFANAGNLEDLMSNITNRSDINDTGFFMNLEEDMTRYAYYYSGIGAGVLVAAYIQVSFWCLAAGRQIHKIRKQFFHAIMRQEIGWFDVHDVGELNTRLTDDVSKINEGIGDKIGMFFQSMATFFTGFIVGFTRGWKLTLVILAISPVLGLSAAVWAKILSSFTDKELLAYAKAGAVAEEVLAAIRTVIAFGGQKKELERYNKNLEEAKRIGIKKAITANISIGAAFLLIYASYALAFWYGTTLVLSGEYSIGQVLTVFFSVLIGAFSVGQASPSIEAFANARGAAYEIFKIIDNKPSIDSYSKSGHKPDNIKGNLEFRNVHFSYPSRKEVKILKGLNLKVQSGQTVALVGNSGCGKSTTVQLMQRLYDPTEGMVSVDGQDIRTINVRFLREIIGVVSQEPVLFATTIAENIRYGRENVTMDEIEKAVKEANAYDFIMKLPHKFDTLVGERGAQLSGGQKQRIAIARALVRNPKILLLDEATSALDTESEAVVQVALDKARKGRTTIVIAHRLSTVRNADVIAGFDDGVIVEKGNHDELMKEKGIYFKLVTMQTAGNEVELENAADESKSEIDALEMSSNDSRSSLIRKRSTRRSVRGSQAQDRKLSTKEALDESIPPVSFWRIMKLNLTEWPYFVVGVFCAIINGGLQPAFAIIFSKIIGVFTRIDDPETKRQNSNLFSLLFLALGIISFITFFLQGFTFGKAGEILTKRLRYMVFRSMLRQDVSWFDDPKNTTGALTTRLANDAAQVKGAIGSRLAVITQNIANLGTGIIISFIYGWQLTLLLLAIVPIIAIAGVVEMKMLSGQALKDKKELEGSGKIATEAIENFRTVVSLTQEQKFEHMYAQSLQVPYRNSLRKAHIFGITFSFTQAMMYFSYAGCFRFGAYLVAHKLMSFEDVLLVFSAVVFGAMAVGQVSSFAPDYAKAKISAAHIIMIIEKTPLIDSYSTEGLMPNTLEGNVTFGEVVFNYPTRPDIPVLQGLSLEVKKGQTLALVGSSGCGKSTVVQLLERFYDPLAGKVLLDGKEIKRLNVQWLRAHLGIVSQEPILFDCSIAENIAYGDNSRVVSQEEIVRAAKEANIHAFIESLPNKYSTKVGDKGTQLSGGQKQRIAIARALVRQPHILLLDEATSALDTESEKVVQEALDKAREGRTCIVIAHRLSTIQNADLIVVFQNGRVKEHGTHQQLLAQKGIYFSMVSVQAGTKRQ

[14] = target: T2, ATP-dependent translocase ABCB1; experiment: P-gp JC-1 efflux blockade concentration-response – Jurkat-DNR cells, flow cytometry, set 2, dose response (AID 504569); assay type: functional; settings: read-out: EC50_MICROM_;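 also: potency of pump inhibitors that raise cellular JC-1 green fluorescence up to the nicardipine level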
[15] = microbe, parasite or virus in culture; assay type: functional; settings: Mycobacterium tuberculosis
[16] = target: T3, Sentrin-specific protease 1 (Homo sapiens, UniProt Q9P0U3); experiment: SENP1 catalytic domain blockers, concentration series – biochemical, kinetic FRET, dose response (AID 651697); assay type: functional; settings: read-out: IC50_Mean
T3 sequence (Q9P0U3 whole entry, the tested form may be a part): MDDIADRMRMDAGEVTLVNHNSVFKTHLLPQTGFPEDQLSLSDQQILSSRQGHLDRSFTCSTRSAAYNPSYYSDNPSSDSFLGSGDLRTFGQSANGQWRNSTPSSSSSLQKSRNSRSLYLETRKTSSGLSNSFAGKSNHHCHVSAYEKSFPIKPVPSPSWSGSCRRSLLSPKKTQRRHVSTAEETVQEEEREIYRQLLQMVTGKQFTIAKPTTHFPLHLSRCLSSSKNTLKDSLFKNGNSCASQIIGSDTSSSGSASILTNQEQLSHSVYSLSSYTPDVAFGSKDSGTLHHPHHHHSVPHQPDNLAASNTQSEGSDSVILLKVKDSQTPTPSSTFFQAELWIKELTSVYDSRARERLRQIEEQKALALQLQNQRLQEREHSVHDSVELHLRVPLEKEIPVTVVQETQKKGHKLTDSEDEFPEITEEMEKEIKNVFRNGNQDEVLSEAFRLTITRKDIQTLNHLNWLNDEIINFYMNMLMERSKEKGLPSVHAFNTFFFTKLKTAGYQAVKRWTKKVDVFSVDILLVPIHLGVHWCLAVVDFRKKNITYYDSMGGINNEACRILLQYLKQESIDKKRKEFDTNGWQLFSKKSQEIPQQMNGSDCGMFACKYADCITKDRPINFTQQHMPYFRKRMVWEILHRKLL

[17] = target: T3, Sentrin-specific protease 1; experiment: Dose response confirmation of small molecule inhibitors of the catalytic domain of the SUMO protease, SENP1 in a FRET assay.; assay type: functional; settings: read-out: IC50_Mean
[18] = viability loss in HeLa cells – cytotoxicity control for MgcRacGAP inhibitor project, dose response (AID 624300); assay type: functional
[19] = target: T4, Rac GTPase-activating protein 1 (Homo sapiens, UniProt Q9H0H5); experiment: blockers of MgcRacGAP-driven Rac1 GTP hydrolysis – biochemical, ADP Hunter fluorescence, primary and confirmatory, confirmation (AID 624330); assay type: functional
T4 sequence (Q9H0H5 whole entry): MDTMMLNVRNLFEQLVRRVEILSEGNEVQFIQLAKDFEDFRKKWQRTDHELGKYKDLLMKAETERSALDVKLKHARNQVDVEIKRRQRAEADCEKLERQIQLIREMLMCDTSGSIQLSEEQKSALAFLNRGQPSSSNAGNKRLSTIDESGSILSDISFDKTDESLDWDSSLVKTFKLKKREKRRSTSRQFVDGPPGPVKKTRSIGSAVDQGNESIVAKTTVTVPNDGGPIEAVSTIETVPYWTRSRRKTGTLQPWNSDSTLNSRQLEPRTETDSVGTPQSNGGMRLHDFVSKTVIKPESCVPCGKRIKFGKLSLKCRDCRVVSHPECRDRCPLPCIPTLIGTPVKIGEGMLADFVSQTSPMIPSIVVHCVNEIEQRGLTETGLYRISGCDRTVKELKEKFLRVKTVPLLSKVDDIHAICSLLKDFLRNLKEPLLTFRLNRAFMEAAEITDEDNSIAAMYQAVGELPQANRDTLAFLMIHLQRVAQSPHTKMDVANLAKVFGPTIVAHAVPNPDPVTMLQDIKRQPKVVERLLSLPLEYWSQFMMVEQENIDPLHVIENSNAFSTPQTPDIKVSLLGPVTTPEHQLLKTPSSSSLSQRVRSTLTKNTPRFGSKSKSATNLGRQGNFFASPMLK

[20] = target: T5, Probable nicotinate-nucleotide adenylyltransferase (Staphylococcus aureus (strain N315), UniProt P65502); assay type: functional, Staphylococcus aureus subsp. aureus N315;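 as to IC50 Mean: confirmatory dose-response retesting of NadD inhibitor hits first found in an ultra-high-throughput screen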
T5 sequence (P65502 whole entry): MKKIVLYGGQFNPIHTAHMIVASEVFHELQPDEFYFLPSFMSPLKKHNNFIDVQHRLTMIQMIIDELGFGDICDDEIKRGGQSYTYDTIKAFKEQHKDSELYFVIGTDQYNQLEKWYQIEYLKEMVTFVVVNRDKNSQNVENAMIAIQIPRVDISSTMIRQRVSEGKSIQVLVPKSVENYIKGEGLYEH

[21] = target: T5, Probable nicotinate-nucleotide adenylyltransferase; assay type: functional, Staphylococcus aureus subsp. aureus N315; settings: read-out: IC50_Mean
[22] = NIH-3T3 fibroblast cytotoxicity, dose response, cytotoxicity control, cell-based, fluorescence, Alamar Blue, secondary assay (AID 2327); assay type: functional;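 also: NIH-3T3 mouse fibroblasts cultured with fluconazole at 8 µg/mL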
cells [23] = assay type: functional, cell-based
[24] = target: T6, Heat shock factor protein 1 (Mus musculus, UniProt P38532); experiment: decrease of HSF1-responsive luciferase luminescence – cell-based, NIH3T3, dose retest, confirmation (AID 2382); assay type: functional;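 also: NIH3T3 fibroblasts with HSF1-driven luciferase reporter stressed by proteasome inhibitor MG132; luminescence from HSF1-driven luciferase expression after 8 hours of MG132 stress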
T6 sequence (P38532 whole entry): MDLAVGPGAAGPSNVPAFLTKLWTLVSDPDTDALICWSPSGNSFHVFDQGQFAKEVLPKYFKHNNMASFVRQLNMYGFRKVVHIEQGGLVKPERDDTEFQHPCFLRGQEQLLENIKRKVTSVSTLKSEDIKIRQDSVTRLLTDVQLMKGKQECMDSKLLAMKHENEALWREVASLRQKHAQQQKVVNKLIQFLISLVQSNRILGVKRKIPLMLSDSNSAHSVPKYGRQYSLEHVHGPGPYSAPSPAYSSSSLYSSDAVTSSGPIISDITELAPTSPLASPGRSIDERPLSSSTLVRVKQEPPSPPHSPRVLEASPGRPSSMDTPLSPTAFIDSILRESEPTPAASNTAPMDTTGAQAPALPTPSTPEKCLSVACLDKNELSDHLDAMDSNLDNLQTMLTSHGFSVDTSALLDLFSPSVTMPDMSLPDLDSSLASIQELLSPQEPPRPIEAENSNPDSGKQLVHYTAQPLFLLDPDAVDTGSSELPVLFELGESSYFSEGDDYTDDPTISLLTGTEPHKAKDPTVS

[25] = fluconazole-exposed Candida albicans growth modulators – fluorescence, retest, confirmation (AID 2467); assay type: functional, cell-based
cells [26] = assay type: functional, cell-based; remark: listed apart in the source
INS1 = experiment: INS-1E survival protection against cytokine death – cell-based, luminescence, retest, dose response (AID 449756); assay type: functional; settings: Rattus norvegicus;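 also: cell death triggered by IL-1 beta plus TNF-alpha plus IFN-gamma mixture; protective hits raise ATP signal compared with cytokine alone wells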
[27] = NIH3T3 cell viability loss, ATP content – CellTiter-Glo luminescence, cherry-pick, set 2, cytotoxicity control for HSP40 inhibitor project, dose response (AID 624265); assay type: functional

In the case of `COc1cccc(C2CC(c3cccs3)=NN2C(=O)c2ccco2)c1O` (stereo unspecified), the IC50 [1] is reported as 5.3 µM (active), the EC50 [2] is reported as > 53 µM (inactive) and the IC50 [3] is reported as 1.51 µM (active).

In the case of `O=C(NCc1cccnc1)c1cccc2c1C(=O)N(C1CCCCC1)C2`, the IC50 [4] is reported as 27.4 µM (not active), the IC50 [5] is reported as 17.8 µM (inactive) and the IC50 (Steroidogenic factor 1) is reported as 3.71 µM (active). For the same molecule, the IC50 [6] was 35.9 µM (inactive).

In the case of `Cc1cc(=O)oc2cc(OCc3ccc(C(=O)OCC(=O)Nc4ccccc4OC(F)F)cc3)ccc12`, the IC50 [7] is reported as 31.3 µM (inactive).

With `C=C1C(=O)C23CCC4C(C)(C(=O)OC)CCCC4(C)C2CCC1(O)C3` (stereo unspecified) the AC50 [8] was 1.27 µM (active), the AC50 [9] was 0.976 µM (active) and the AC50 [10] was 5.71 µM (active). The AC50 [11] was 1.66 µM (active), the IC50 [12] was 1.36 µM (active) and the IC50 (Beta Lactamase) was 46.8 µM (inactive).

With `Cc1cc(N2CCN(C(=O)c3ccoc3)CC2)n2nc(-c3ccc(Br)cc3)cc2n1` the EC50 [13] was 2.08 µM (active) and the EC50 [14] was 11.2 µM (active).

In the case of `C/C(=N\NC(=O)c1ccc(O)cc1)c1ccc2c(c1)Nc1ccccc1S2`, the CC50 [15] is reported as 21.2 µM (active), the IC50 [16] is reported as 7.06 µM (active) and the IC50 [17] is reported as 4.61 µM (active). The CC50 [18] was 86.9 µM (active) and the IC50 [19] was 35.3 µM (active).

For `Cc1nn(-c2ccccc2)c(N2CCCC2)c1/C=N/NC(=O)c1cccc(S(=O)(=O)Nc2ccc(Cl)cc2)c1`, the IC50 [20] was 8.05 µM (active) and the IC50 [21] was 28.9 µM (active).

In the case of `Oc1ccc(Br)cc1/C=N/Nc1ccccn1`, the EC50 [22] is reported as 3.83 µM (inconclusive), the EC50 (cells [23]) is reported as 6.83 µM (active) and the EC50 [24] is reported as 3.19 µM (active). The EC50 [25] was 1.51 µM (active), the EC50 (cells [26]) was 22.5 µM (active) and the AC50 [8] was 1.32 µM (active). For the same molecule, the AC50 (INS1) was 1.98 µM (active) and the AbsAC35_uM [27] was 82.89 µM.
